Tested on: 388556-164-R-J1-PDC complex spheroid viability
Experiment: Anticancer human tumor 388556-164-R-J1-PDC patient-derived colon adenocarcinoma cell line growth inhibition [RAS]
Settings: for IC50: curve of first compound; for viability, T/C: stronger effect = lower value
Outline: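 Multi-cell-type spheroids: tumor cells plus HUVEC endothelial cells and mesenchymal stem cells. RAS-pathway inhibitors were combined with targeted agents, each dosed in half-log steps down from clinical Cmax, or from 10 microM when Cmax was unknown.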

[1] = second compound 0.00316 µM, first compound 0.0316 µM
[2] = second compound 0.00316 µM, first compound 0.1 µM
[3] = second compound 0.00316 µM, first compound 0.316 µM
[4] = second compound 0.00316 µM, first compound 1 µM
[5] = second compound 0.00316 µM, first compound 3.16 µM
[6] = second compound 0.00316 µM, first compound 10 µM
[7] = second compound 0.01 µM, first compound 0.0316 µM
[8] = second compound 0.01 µM, first compound 0.1 µM
[9] = second compound 0.01 µM, first compound 0.316 µM
[10] = second compound 0.01 µM, first compound 1 µM
[11] = second compound 0.01 µM, first compound 3.16 µM
[12] = second compound 0.01 µM, first compound 10 µM
[13] = second compound 0.0316 µM, first compound 0.0316 µM
[14] = second compound 0.0316 µM, first compound 0.1 µM
[15] = second compound 0.0316 µM, first compound 0.316 µM
[16] = second compound 0.0316 µM, first compound 1 µM
[17] = second compound 0.0316 µM, first compound 3.16 µM
[18] = second compound 0.0316 µM, first compound 10 µM
[19] = second compound 0.1 µM, first compound 0.0316 µM
[20] = second compound 0.1 µM, first compound 0.1 µM
[21] = second compound 0.1 µM, first compound 0.316 µM
[22] = second compound 0.1 µM, first compound 1 µM
[23] = second compound 0.1 µM, first compound 3.16 µM
[24] = second compound 0.1 µM, first compound 10 µM
[25] = second compound 0.316 µM, first compound 0.0316 µM
[26] = second compound 0.316 µM, first compound 0.1 µM
[27] = second compound 0.316 µM, first compound 0.316 µM
[28] = second compound 0.316 µM, first compound 1 µM
[29] = second compound 0.316 µM, first compound 3.16 µM
[30] = second compound 0.316 µM, first compound 10 µM
[31] = second compound 1 µM, first compound 0.0316 µM
[32] = second compound 1 µM, first compound 0.1 µM
[33] = second compound 1 µM, first compound 0.316 µM
[34] = second compound 1 µM, first compound 1 µM
[35] = second compound 1 µM, first compound 3.16 µM
[36] = second compound 1 µM, first compound 10 µM
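Also: spheroids exposed to compound for 7 days before readout.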
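For viability, T/C in this document: 100% = DMSO vehicle control luminescence.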

CC1(O)CCCC1n1c(=O)c(C(F)F)cc2cnc(NC3CCN(S(C)(=O)=O)CC3)nc21 (stereo not drawn) + C=CC(=O)N1CCN(c2nc(OCC3CCCN3C)nc3c(F)c(-c4nc(N)cc(C)c4C(F)(F)F)c(Cl)cc23)C(C)C1
IC50 (second compound 0.00316 µM): > 10000 nM | IC50 (second compound 0.01 µM): > 10000 nM | IC50 (second compound 0.0316 µM): > 10000 nM | IC50 (second compound 0.1 µM): > 10000 nM | IC50 (second compound 0.316 µM): > 10000 nM | IC50 (second compound 1 µM): > 10000 nM | viability, T/C [1]: 98.3% | viability, T/C [2]: 103% | viability, T/C [3]: 105% | viability, T/C [4]: 99.8% | viability, T/C [5]: 109% | viability, T/C [6]: 73.5% | viability, T/C [7]: 93.7% | viability, T/C [8]: 107% | viability, T/C [9]: 101% | viability, T/C [10]: 98.9% | viability, T/C [11]: 105% | viability, T/C [12]: 77.2% | viability, T/C [13]: 101% | viability, T/C [14]: 104% | viability, T/C [15]: 102% | viability, T/C [16]: 108% | viability, T/C [17]: 115% | viability, T/C [18]: 81% | viability, T/C [19]: 103% | viability, T/C [20]: 108% | viability, T/C [21]: 99.5% | viability, T/C [22]: 99.2% | viability, T/C [23]: 102% | viability, T/C [24]: 76% | viability, T/C [25]: 102% | viability, T/C [26]: 91.7% | viability, T/C [27]: 96.9% | viability, T/C [28]: 97.7% | viability, T/C [29]: 101% | viability, T/C [30]: 75.3% | viability, T/C [31]: 98.7% | viability, T/C [32]: 102% | viability, T/C [33]: 100% | viability, T/C [34]: 111% | viability, T/C [35]: 104% | viability, T/C [36]: 68.7%

CCC(CC)c1cc(NC2CCC(N)C2)n2nccc2n1 (stereo not drawn) + C=CC(=O)N1CCN(c2nc(OCC3CCCN3C)nc3c(F)c(-c4nc(N)cc(C)c4C(F)(F)F)c(Cl)cc23)C(C)C1
IC50 (second compound 0.00316 µM): 2730 nM | IC50 (second compound 0.01 µM): 2700 nM | IC50 (second compound 0.0316 µM): 2770 nM | IC50 (second compound 0.1 µM): 2470 nM | IC50 (second compound 0.316 µM): 2460 nM | IC50 (second compound 1 µM): 2340 nM | viability, T/C [1]: 98.2% | viability, T/C [2]: 98.6% | viability, T/C [3]: 106% | viability, T/C [4]: 93.9% | viability, T/C [5]: 43.6% | viability, T/C [6]: 29.6% | viability, T/C [7]: 97.2% | viability, T/C [8]: 109% | viability, T/C [9]: 102% | viability, T/C [10]: 96% | viability, T/C [11]: 42.6% | viability, T/C [12]: 27.8% | viability, T/C [13]: 96% | viability, T/C [14]: 104% | viability, T/C [15]: 106% | viability, T/C [16]: 101% | viability, T/C [17]: 43.3% | viability, T/C [18]: 29.9% | viability, T/C [19]: 97.5% | viability, T/C [20]: 95.9% | viability, T/C [21]: 102% | viability, T/C [22]: 98.2% | viability, T/C [23]: 36.8% | viability, T/C [24]: 26.5% | viability, T/C [25]: 104% | viability, T/C [26]: 112% | viability, T/C [27]: 109% | viability, T/C [28]: 105% | viability, T/C [29]: 34.6% | viability, T/C [30]: 28.5% | viability, T/C [31]: 98.6% | viability, T/C [32]: 100% | viability, T/C [33]: 109% | viability, T/C [34]: 111% | viability, T/C [35]: 30.7% | viability, T/C [36]: 27.6%

Cc1nc(N2CCC3(CC2)COC(C)C3N)c(CO)nc1Sc1ccnc(N)c1Cl (stereo not drawn) + C=CC(=O)N1CCN(c2nc(OCC3CCCN3C)nc3c(F)c(-c4nc(N)cc(C)c4C(F)(F)F)c(Cl)cc23)C(C)C1
IC50 (second compound 0.00316 µM): 2820 nM | IC50 (second compound 0.01 µM): 3770 nM | IC50 (second compound 0.0316 µM): 6520 nM | IC50 (second compound 0.1 µM): 3060 nM | IC50 (second compound 0.316 µM): 3340 nM | IC50 (second compound 1 µM): 1520 nM | viability, T/C [1]: 88.3% | viability, T/C [2]: 83.7% | viability, T/C [3]: 72.8% | viability, T/C [4]: 58.3% | viability, T/C [5]: 49.2% | viability, T/C [6]: 45.3% | viability, T/C [7]: 94.7% | viability, T/C [8]: 82.4% | viability, T/C [9]: 75.7% | viability, T/C [10]: 61.7% | viability, T/C [11]: 49.7% | viability, T/C [12]: 43.7% | viability, T/C [13]: 86.1% | viability, T/C [14]: 79.9% | viability, T/C [15]: 73.3% | viability, T/C [16]: 63.3% | viability, T/C [17]: 55.3% | viability, T/C [18]: 47% | viability, T/C [19]: 95.5% | viability, T/C [20]: 83.5% | viability, T/C [21]: 70.5% | viability, T/C [22]: 60.9% | viability, T/C [23]: 49.6% | viability, T/C [24]: 40.6% | viability, T/C [25]: 97.7% | viability, T/C [26]: 78% | viability, T/C [27]: 70.9% | viability, T/C [28]: 63.8% | viability, T/C [29]: 54.1% | viability, T/C [30]: 36.9% | viability, T/C [31]: 91.2% | viability, T/C [32]: 92.5% | viability, T/C [33]: 68.5% | viability, T/C [34]: 56.7% | viability, T/C [35]: 42.3% | viability, T/C [36]: 39.8%

NC1c2ccccc2OC12CCN(c1cnc3c(N4CCCc5ncccc54)n[nH]c3n1)CC2 (stereo not drawn) + C=CC(=O)N1CCN(c2nc(OCC3CCCN3C)nc3c(F)c(-c4nc(N)cc(C)c4C(F)(F)F)c(Cl)cc23)C(C)C1
IC50 (second compound 0.00316 µM): 180 nM | IC50 (second compound 0.01 µM): 152 nM | IC50 (second compound 0.0316 µM): 165 nM | IC50 (second compound 0.1 µM): 230 nM | IC50 (second compound 0.316 µM): 190 nM | IC50 (second compound 1 µM): 240 nM | viability, T/C [1]: 63.9% | viability, T/C [2]: 55.6% | viability, T/C [3]: 45.8% | viability, T/C [4]: 39.4% | viability, T/C [5]: 44.6% | viability, T/C [6]: 38.8% | viability, T/C [7]: 67.4% | viability, T/C [8]: 55.4% | viability, T/C [9]: 39.1% | viability, T/C [10]: 39.7% | viability, T/C [11]: 44.2% | viability, T/C [12]: 38.8% | viability, T/C [13]: 71.1% | viability, T/C [14]: 54.1% | viability, T/C [15]: 44.1% | viability, T/C [16]: 38.7% | viability, T/C [17]: 39.8% | viability, T/C [18]: 32.9% | viability, T/C [19]: 70% | viability, T/C [20]: 59.5% | viability, T/C [21]: 45.7% | viability, T/C [22]: 40.5% | viability, T/C [23]: 40.1% | viability, T/C [24]: 35.6% | viability, T/C [25]: 69.2% | viability, T/C [26]: 54.6% | viability, T/C [27]: 45.3% | viability, T/C [28]: 41.8% | viability, T/C [29]: 40.6% | viability, T/C [30]: 35.5% | viability, T/C [31]: 70.3% | viability, T/C [32]: 58.3% | viability, T/C [33]: 45.9% | viability, T/C [34]: 40% | viability, T/C [35]: 34.4% | viability, T/C [36]: 28.1%

— PubChem BioAssay AID2060907 (Molecular Pharmacology Branch, DTP, NCI, 2025)
